# Data as given in US10028958B2, “Methods of treating cancer with a combination of selected MEK1/2 and AXL inhibitors” (Massachusetts Institute of Technology, priority 2014, dated 2018).
# Tests used:
# LOX-IMVI cells = assay: Xenograft mouse model of melanoma; parameters: species or system mice; conditions: in vivo
# Procedure: For the xenograft melanoma experiment, 7 week old female athymic nude mice (Taconic) were injected with 1×10^6 LOX-IMVI cells in 1:1 Matrigel:HBSS subcutaneously in each flank (Yang, D., et al. “RasGRP3, a Ras activator, contributes to signaling and the tumorigenic phenotype in human melanoma.” Oncogene 30, no. 45: 4590-4600 (2011)). 7 days post-cell injection, tumors were measured by calipers and mice were ranked by tumor size and semi-randomly divided into 6 groups of equal distribution in tumor size, with 10 mice per group. […]
# Tumor volumes was measured two to three times a week, estimated using the spherical tumor volume formula V=4/3πr^3, where r is averaged from 4 caliper measurements performed by two blinded researchers. […] For metastasis quantification, the numbers of metastases were counted in paraffin-embedded, H&E-stained sections, by a blinded researcher. Upon sacrifice, blood was collected via cardiac puncture into a heparinized syringe, immediately centrifuged at 2000×g for 20 min, and plasma fraction was stored at −80° C. for later quantification of receptor levels by ELISA and bead-based immunoassay.
# panel of cell lines = assay: Proliferation/cytotoxicity cell count by flow cytometry; type: cell-based; conditions: individual drug treatment; rough approximation
# Procedure: Proliferation and cytotoxicity were assessed by gently rinsing cells, trypsinizing for 15 min, and immediately counting cells by flow-cytometry. Live/dead staining routinely confirmed the majority (>98%) of counted cells to be alive using this procedure. Synergy was calculated using the model of Bliss independence (Bliss, C. I. The toxicity of poisons applied jointly Annals of applied biology 26, 585-615 (1939)), reported herein as the ratio of [observed combination effect size]/[predicted combination effect size], such that values >1 indicate super-additive drug effect, or synergy, and values <1 indicate antagonism. Drug concentrations for synergy measurements were chosen to roughly approximate the IC30 value averaged across the panel of cell lines for the individual drug treatments, and were 20 μM U0126, 7 μM PD325901, and 200 nM R428.
# p-JNK = assay: Short term BB94-elicited downstream phosphosignaling (bead-based immunoassay); type: cell-based; conditions: 2 h
# MDA-MB231-LM2 cells = assay: Orthotopic xenograft model of TNBC: tumor growth, metastasis, immunostaining, plasma receptors; type: in vivo, mice; conditions: primary tumors, 21 days after treatment
# Procedure: For orthotopic mammary transplant assays, 6-week-old female NOD/SCID-gamma mice (JAX) were anesthetized by intraperitoneal (i.p.) injection of 125-250 mg/kg body weight of Avertin (reconstituted in PBS), followed by i.p. injection of 100 μL, of 12 μg/mL buprenorphine for analgesia. A small incision was made on the right flank, and 250,000 MDA-MB231-LM2 cells in 25 μL, of HBSS were injected into the right #4 fat pad using a 25-μL Hamilton syringe. Mice received three additional i.p. injections of 100 μL, of 12 μg/mL buprenorphine at 12 h intervals following the surgery. […] Twenty (20) days post-surgery, when tumor size was palpable, mice were ranked by tumor size and semi-randomly divided into four groups of equal distribution in tumor size. […]
# MET and AXL levels were quantified by measuring fluorescent staining intensity over a line drawn radially from the tumor edge towards the tumor core. […] Regions with morphology characteristic of stroma or necrosis were generally avoided during quantification. Peak intensities along the line were confirmed by visual inspection as corresponding to cell membranes, and were quantified and indexed according to the distance from the tumor edge.
# surface AXL = conditions: 24 hours; 10 cell lines; more in lines with AXLi/MEKi synergy
# Procedure: Cells were trypsinized, rinsed in 4° C. phospho-buffered saline (PBS)+3% FBS, incubated with 1° Ab (i.e., primary antibody) in PBS+3% FBS for 1 h, rinsed, and fixed overnight in PBS+1% formaldehyde at 4° C. The following day, cells were rinsed, incubated with 2° Ab (i.e., secondary antibody) conjugated to either Alexa647 or Alexa546, rinsed, and analyzed by flow cytometry. Fold-change was determined after subtracting the median fluorescence from control cells stained with the IgG control antibody.
# [1] = test system: supernatant TIMP-1 and -3; assay: Antibody microarray analysis of MDA-MB231 supernatant; type: cell-based; conditions: 24 h; MDAMB231; Ab-microarray
# Procedure: MDA-MB231 cells were plated in 10 cm plates at 70% confluency, treated the following day with either DMSO or PD325901, and supernatant was collected 24 hours (h) later. Using L-1000 RayBio (Norcross Ga.) microarrays, supernatant was processed according to manufacturer instructions. Two biological replicate samples were analyzed for the control and MEKi conditions, with one sample undiluted and the other diluted 1:5 in growth media. Each array contains duplicate antibody spots, and so a total of n=4 replicates was used to determine significant changes in supernatant proteins. Only proteins measured more than four standard deviations above background for at least one condition were included in the analysis. Gene set enrichment analysis was performed as previously described using gene ontology (GO) gene sets (Subramanian, A. et al., Gene set enrichment analysis: a knowledge-based approach for interpreting genome-wide expression profiles. Proc Natl Acad Sci USA 102, 15545-15550 (2005)). […] The other top gene-sets were “intrinsic to membrane”, “integral to membrane”, “receptor activity”, and “intrinsic to plasma membrane”. The highest enrichment score in PD325901-treated cells was for “hematopoietin interferon class-D200 domain cytokine receptor binding” comprising 10 non-transmembrane proteins, with a corresponding p-value of 0.003.
# ADAM17 = ADAM17 dimerization (s-EGS cross-linking, western blot); type: cell-based; conditions: 3 h; MDA-MB231, MDA-MB157, BT549
# Procedure: For each condition, two confluent 15 cm plates of cells were serum-starved for 4 h, treated with inhibitor for 3 h, rinsed with 4° C. PBS, incubated with 0.5 mg/ml sulfo-EGS (Pierce) for 30 min., and lysed in 1% NP40 buffer. Lysates were clarified, precleared with agarose resin, incubated with protein A/G resin (Pierce) and anti-ADAM17 antibody (R&D Systems Duo-set) overnight, washed, and then boiled in denaturing lysis buffer. Methods roughly follow previously described protocols (Miller, M. A., Meyer, A. S., Beste, M. T., Lasisi, Z., Reddy, S., Jeng, K. W., Chen, C. H., Han, J., Isaacson, K., Griffith, L. G. et al. (2013). ADAM-10 and -17 regulate endometriotic cell migration via concerted ligand and receptor shedding feedback on kinase signaling, Proc Natl Acad Sci USA 110, E2074-E2083; Xu, P., Liu, J., Sakaki-Yumoto, M., and Derynck, R. (2012). TACE activation by MAPK-mediated regulation of cell surface dimerization and TIMP3 association, Sci Signal 5, ra34).
# sheddase substrates = assay: Supernatant accumulation of sheddase substrates (ELISA, bead-based immunoassay); conditions: for supernatant RTK accumulation: multiple cancer types
# Procedure: The following inhibitors were used in FIG. 1H, at the following concentrations: metalloproteinase inhibitor BB94 (10 μM; Tocris Bioscience), p38 inhibitor SB203580 (20 μM; Selleck Chem), MEK1/2 inhibitor PD0325901 (10 μM; LC Labs), Met/AXL inhibitor XL-880 (5 μM; Selleck Chem), MEK1/2 inhibitor U0126 (10 μM; Selleck Chem), MEK1/2 inhibitor AZD6244 (10 μM; Selleck Chem), Aurora kinase inhibitor VX-680 (10 μM; Selleck Chem), PI3K inhibitor LY294002 (10 μM; Selleck Chem), JNK1/2 inhibitor JNK-IN-8 (3 μM; courtesy Nathaniel Gray, Harvard Medical School), JNK inhibitor SP600125 (10 μM; LC Labs), EGFR inhibitor gefitinib (1 μM; LC Labs), EGFR inhibitor erlotinib (1 μM; LC Labs), JNK inhibitor TCS-6o (1 μM; Tocris Bioscience), Abl inhibitor imatinib (1 μM; LC Labs), EGFR/HER2 inhibitor lapatinib (1 μM; LC Labs), AXL inhibitor R428 (3 μM; Selleck Chem), Alk5 inhibitor ALX-270-448 (5 μM; Enzo life sciences), AXL/MET inhibitor MP470 (5 μM; Selleck Chem), myosin light chain kinase inhibitor ML7 (1 μM; Sigma), and glycogen synthase kinase 3b inhibitor SB216763 (10 μM; Selleck Chem) Inhibitor concentrations were chosen based roughly on exceeding previously published Ki and IC50 values. The ADAM-10 inhibitor pro-ADAM-10 was from Biozyme, Inc. (St. Joseph, Mo.) and was used at 4 μM.
# AXL, MET, TNFR1, and EGF-ligand supernatant measurements were performed using duo-set ELISA kits (R&D Systems, Minneapolis, Minn.). Total RTK measurements for HER2 and HER4 were performed using bead-based immunoassays (EMD Millipore, Billerica, Mass.).
# For quantification of supernatant protein levels, cell supernatant was collected at the indicated time-point, spun for 5 min at 300 g, and frozen at −80° C. for future use. Supernatants were routinely normalized to cell count, determined via trypsinization and ViCell (Beckman Coulter, Brea, Calif.), and volumes were kept consistent across treatments.
# As shown in FIG. 3A-3B, MDA-MB231 cells were treated with siRNA as described above and were seeded in 96-well plates at equal 90% confluency. Media was changed at 48 h post-transfection, and 24 h later supernatant was collected and cells were analyzed by live-cell immunostaining. For proADAM10 treatment, cells were seeded in 96-well plates at 90% confluency, treated with inhibitor or buffer control the following day, and supernatant was collected 24 h later.
# [2] = test system: AXL association with MET and HER2; assay: RTK cross-linking and bead-based co-I.P.; type: cell-based; conditions: 2 h; MDAMB231
# Procedure: MDA-MB231 cells were plated at 90% confluency on three 10-cm plates for each condition, serum starved for 4 h the following day, and treated with inhibitor in serum-free media for 2 h. Cells were then cross-linked with 1 mM EGS for 30 min at 4° C., lysed. Receptor cross-linking was measured using a modified MET and HER2 Luminex Bioplex assay, as previously described (Meyer, A. S., Miller, M. A., Gertler, F. B., and Lauffenburger, D. A. (2013). The receptor AXL diversifies EGFR signaling and limits the response to EGFR-targeted inhibitors in triple-negative breast cancer cells. Sci Signal 6, ra66).
# [3] = test system: OVCA-429 ovarian cancer cells; assay: Loewe synergy of MEKi/AXLi cell count, with or without BB94; type: cell-based; conditions: 72 h; addition of 10 uM BB94
# Procedure: (§1) Drugs were purchased from Selleck Chem (Houston, Tex.) and LC Labs (Woburn, Mass.). Cells were grown as described by manufacturers' guidelines. OVCA-429 were grown in RPMI+10% FBS. To calculate Loewe synergy, a computational model was used (Greco, W. R., et al., Pharmacol Rev., 47(2):331-85 (1995)) and the synergy term a was computationally inferred using Matlab (Mathworks; Natick, Mass.). Statistical significance was determined by leave-one-out jackknife error estimation (Efron, B. and Gong, G., Amer Stat.; 37(1):36-48 (1983)). For both MDAMB-231 and OVCA-429 synergy calculations, the modeling was fit to data from treatment at the MEKi concentrations of 7 μM, 2 μM, 0.7 μM, and 0.02 μM and R428 concentrations of 1.5 μM, 0.75 μM, 0.38 μM, and 0.19 μM. For cell growth assays, 5000 cells were plated per well in a 96-well plate, treated with drugs the following day, and counted at 72 h according to either a rezasurin assay (PrestoBlue; Life Technologies, Grand Island, N.Y.) using manufacturer's guidelines, or by flow cytometry following trypsinization and immediate analysis on an LSR-II (BD Biosciences, San Jose, Calif.).
# MDAMB-231 = assay: as above; type: cell-based; conditions: 72 h; addition of 10 uM BB94
# Procedure: as §1
# AXL pY = assay: Short term p-AXL up-regulation (bead-based immunoassay); type: cell-based; conditions: 2 h; MDAMB231
# Source text: pTyr-RTK measurements used bead-based immunocapture with a pan-pTyr detection antibody (EMD Millipore, Billerica, Mass.). Unless otherwise stated, immunoassays followed manufacturer protocols. Bead-based immunoassays were routinely normalized according to the micro BCA protein assay (Pierce) or cell count (ViCell). ADAM17 (pThr^735) and ADAM10 western blot Abs were from Sigma. Anti-phospho Histone H3 (Ser10) for measuring mitotic index was from EMD Millipore, (Billerica, Mass.). GAPDH (glyceraldehyde-3-phosphate dehydrogenase) and α-actinin were used for Western blotting and purchased from Cell Signaling Technology (Danvers, Mass.). APP Ab was from Abcam (Cambridge, Mass.). Live-cell immunostaining was performed using R&D Systems (Minneapolis, Minn.) Abs. SiRNAs, including non-targeting control siRNA, were packaged as SMARTpool ON-TARGETplus and used with DharmaFECT4 (Thermo Scientific, Tewksbury, Mass.). For ADAM10/17 western blots, lysis was performed with 50 mM tris-HCl (pH 7.5), 10% glycerol, 150 mM NaCl, and 1% NP-40, with complete protease (Roche, Nutley, N.J.) and phosphatase (Boston BioProducts, Ashland, Mass.) inhibitors added immediately before use.
# mitotic index = assay: Cell cycle analysis (mitotic index by FACS); type: cell-based
# Procedure: Cells were trypsinized, rinsed in 4° C. PBS, fixed in 70% 4° C. ethanol overnight, rinsed, and permeabilized in 0.1% Triton-X-100. Cells were then blocked for 1 h in PBS+3% FBS, incubated with anti-phospho-Histone H3 (pSer^10) for 1 h, rinsed, incubated with Alexa647-conjugated 2° Ab, and again rinsed. Lastly, cells were finally incubated at 37° C. for 1 h with 40 μg/ml propidium iodide and 100 μg/ml RNaseA, and again rinsed. Mitotic index was calculated by interpreting DNA-content histograms as described previously (Watson, J. V., Chambers, S. H. & Smith, P. J. A pragmatic approach to the analysis of DNA histograms with a definable G1 peak. Cytometry 8, 1-8 (1987)) in Matlab (Mathworks, Natick, Mass.) and gating for G2/M phase cells with high p-Histone-H3 staining.
# [4] = test system: ovarian carcinoma and malignant melanoma; assay: Combination drug treatment cell growth assay, 72 h; type: cell-based
# Procedure: Drugs were purchased from Selleck Chem (Houston, Tex.) and LC Labs (Woburn, Mass.). Cells were grown as described by manufacturers' guidelines. […] For cell growth assays, 5000 cells were plated per well in a 96-well plate, treated with drugs the following day, and counted at 72 h according to either a rezasurin assay (PrestoBlue; Life Technologies, Grand Island, N.Y.) using manufacturer's guidelines, or by flow cytometry following trypsinization and immediate analysis on an LSR-II (BD Biosciences, San Jose, Calif.).
smiles,measurement,setting,value
Nc1nc(Nc2ccc3c(c2)CC[C@@H](N2CCCC2)CC3)nn1-c1cc2c(nn1)-c1ccccc1CCC2 [R428],overall survival,LOX-IMVI cells,no significant effect on overall survival
same,IC30 value averaged across the panel of cell lines,panel of cell lines,~0.2 µM
same,MPi-evoked p-JNK increase on co-treatment,"p-JNK; MDA-MB231, co-treatment with BB94",eliminated
O=C(NOC[C@H](O)CO)c1ccc(F)c(F)c1Nc1ccc(I)cc1F [PD325901],AXL and MET ectodomain immunostaining near the tumor edge,MDA-MB231-LM2 cells,"up-regulation of AXL, and MET to a lesser degree"
same,surface AXL,surface AXL,increase surface AXL
same,supernatant TIMP-1 and -3,[1],decreases supernatant TIMP-1 and -3
same,IC30 value averaged across the panel of cell lines,panel of cell lines,~7 µM
same,ADAM17 homodimerization,ADAM17,increased ADAM17 dimerization
same,supernatant RTK accumulation,sheddase substrates; 24 h,reduced supernatant RTK accumulation
CNC(=O)[C@H](Cc1ccccc1)NC(=O)[C@H](CC(C)C)[C@H](CSc1cccs1)C(=O)NO [BB94],AXL association with MET and HER2,[2],increases
same,Loewe synergy (interaction term α) of trametinib and R428,[3],reduced synergy
same,Loewe synergy (interaction term α) of PD325901 and R428,MDAMB-231,reduced synergy
same,total AXL pY,AXL pY,increases
same,mitotic index,mitotic index,increases mitotic index
same,supernatant RTK accumulation,sheddase substrates; 24 h,reduced supernatant RTK accumulation
same,phosphosignaling,p-JNK; MDAMB231,increases phosphosignaling in an AXL-dependent manner
N#CC(=C(/N)Sc1ccccc1N)/C(C#N)=C(\N)Sc1ccccc1N [U0126],total AXL pY,AXL pY,increases
same,surface AXL,surface AXL,increase surface AXL
same,IC30 value averaged across the panel of cell lines,panel of cell lines,~20 µM
same,supernatant accumulation of sheddase substrates,"sheddase substrates; 24 h, each dot a different cell line, ELISA",reduces supernatant accumulation of sheddase substrates
same,"supernatant levels of multiple sheddase substrates (AREG, HBEGF, TGFα, TNFR1, AXL, MET, HER2, HER4)",sheddase substrates; MDA-MB231 cells,consistently reduce supernatant levels of multiple sheddase substrates
CNC(=O)c1cc(Oc2ccc(NC(=O)Nc3ccc(Cl)c(C(F)(F)F)c3)cc2)ccn1 [sorafenib],efficacy of combination treatment with MAPK and RTK inhibitors (cell count),[4],effective
"S=C(NCc1ccc2c(c1)OCO2)N1CCN(c2ncnc3c2oc2ccccc23)CC1 [MP470, amuvatinib]",efficacy of combination treatment with MAPK and RTK inhibitors (cell count),[4],efficacious
COc1cc2c(Oc3ccc(NC(=O)C4(C(=O)Nc5ccc(F)cc5)CC4)cc3F)ccnc2cc1OCCCN1CCOCC1 [foretinib],efficacy of combination treatment with MAPK and RTK inhibitors (cell count),[4],efficacious
